These results are taken from US20150306096A1, “8'-HYDROXY-DIHYDROERGOTAMINE COMPOUNDS AND COMPOSITIONS” (MAP Pharmaceuticals, Inc., priority 2012, published 2015).

Assay [1] addresses T1, human Serotonin 5-HT1B receptor (Homo sapiens, UniProt P28222).
T1 construct: purchased Euroscreen
Briefly: GTPγS functional assay. Type of assay: biochemical. The following applies: read-out: Functional activity (agonist). As for the experimental part: Functional profiling of agonist and antagonist activities of 8′-OH DHE on human Adrenergic α1D, Dopamine D2L, and Serotonin 5-HT1B, 5-HT1D, 5-HT1F, 5-HT3, 5-HT4e and 5-HT5A receptors (compared against the parent (DHE) molecule) was carried out as follows.
The SPA 35S-GTPγS tests were conducted with Euroscreen membrane preparations […]. The HTRF assays were conducted with recombinant cell lines. The receptor accession numbers, cellular background and reference compounds are as reported below in Table 10.
(3) 8′-OH DHE was tested for agonist and antagonist activity at the human Serotonin 5-HT1B and Serotonin 5-HT1D receptors using GTPγS assay (in triplicate) at the following nanomolar concentrations: […]
The assay procedure was carried out as follows. […] The plates were then centrifuged for 10 minutes at 2,000 rpm and counted for 1 min/well with a Perkin Elmer TopCount reader.
Agonist activity of the test compounds was expressed as a percentage of the activity of the reference agonist at its EC100 concentration. Antagonist activity of the test compounds was expressed as a percentage of the inhibition of the reference agonist activity at its EC80 concentration. Dose-response data from the test compounds were analyzed with XLfit (IDBS) software using nonlinear regression applied to a sigmoidal dose-response model and the following equation: […]

For assay [2], the system named is Glutamate (mGlu3/mGlu5/mG1u7). Briefly: Glutamate receptor aequorin / cAMP assays. Type of assay: cell-based, human. The settings on record: mGlu receptors. As for the experimental part: Additional receptor agonist/agonist activity assessments were performed using the 8′-OH DHE test compound. Table 12 contains a summary of the cell lines (CHO-K1/HEK293 transfected with relevant human receptor) and the assays performed to detect any agonist or antagonist activity. […]
For agonist testing, 30 μL of cell suspension was mixed with 30 μL of the test 8′-OH DHE compound or reference agonist in a 384-well plate. The resulting emission of light was recorded using the FDSS 6000 luminometer. […] The resulting emission of light was recorded using the FDSS 6000 luminometer.
Cells expressing the human recombinant receptor of interest were grown in media without antibiotic and detached by gentle flushing with PBS-EDTA (5 mM EDTA), recovered by centrifugation and resuspended in assay buffer (KRH: 5 mM KCl, 1.25 mM MgSO4, 124 mM NaCl, 25 mM HEPES, 13.3 mM glucose, 1.25 mM KH2PO4, 1.45 mM CaCl2, 0.5 g/L BSA). […] Lysis buffer was added and after one hour incubation, cAMP concentrations were determined according to the manufacturer specification with the HTRF kit. […] Lysis buffer was added and after 1 hour incubation, cAMP concentrations were determined according to the manufacturer specification, with the HTRF kit. […]
For orientation: cAMP levels reflect the balance of adenylyl cyclase and phosphodiesterase activity.

T1 sequence (P28222 whole entry): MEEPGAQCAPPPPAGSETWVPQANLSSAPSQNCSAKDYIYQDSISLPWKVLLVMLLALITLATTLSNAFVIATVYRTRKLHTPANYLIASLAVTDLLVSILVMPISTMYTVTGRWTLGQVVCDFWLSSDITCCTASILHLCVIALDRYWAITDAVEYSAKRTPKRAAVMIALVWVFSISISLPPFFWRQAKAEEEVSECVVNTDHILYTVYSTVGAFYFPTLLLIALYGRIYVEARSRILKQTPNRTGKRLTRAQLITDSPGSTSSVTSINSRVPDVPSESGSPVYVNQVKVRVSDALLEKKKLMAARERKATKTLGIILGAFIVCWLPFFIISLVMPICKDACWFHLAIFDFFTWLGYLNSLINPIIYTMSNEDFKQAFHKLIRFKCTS

On to `CN1C[C@H](C(=O)N[C@]2(C)O[C@@]3(O)[C@@H]4CCC(O)N4C(=O)[C@H](Cc4ccccc4)N3C2=O)C[C@@H]2c3cccc4[nH]cc(c34)C[C@H]21` (some centres unmarked) [8′-OH DHE, 8′-Hydroxy-Dihydroergotamine], for which the EC50 in assay [1] came to 0.73 nM. For the same compound, the “Activity (Agonism: EC50; Antagonism: IC50)” value in assay [2] was “Inactive”.
